Data on 1 compound can be found in patent US12012373B2, “Cannabinoid derivatives” (CANOPY GROWTH CORPORATION, priority 2019, dated 2024).

Experiment [1] concerns the target T1, human CB1 receptor (Homo sapiens, UniProt P21554). Put plainly: PathHunter β-Arrestin functional assay, CB1 receptor, agonist mode. Set-up: membranes prepared in house. The class given is cell-based. From the text:
In the PathHunter® β-Arrestin system from DiscoveRx (Eurofins, Fremont, CA), a small peptide, the ProLink™ (PK), is fused to the intracellular sequence of a GPCR target, and a complementing peptide, the enzyme acceptor (EA) fragment, is fused to β-arrestin. After binding to its specific ligand, the GPCR target recruits β-arrestin, forcing the complementation of the two β-galactosidase enzyme fragments (EA and PK) to produce a functional β-galactosidase enzyme. The enzyme activity, and thus the amount of ligand bound to the GPCR, is detected with a single addition of a reagent cocktail to lyse the cells and produce a chemiluminescent signal before being analyzed using a traditional plate reader.
PathHunter® CHO-K1 CNR1 β-Arrestin cells (DiscoverRx, cat. Number 93-0959C2) stably expressing CB1 receptor (CB1R) were grown in Ham's F12 medium curtaining 10% fetal bovine serum (FBS), 1% penicillin/streptomycin, 300 μg/mL Hygromycin B and 800 μg/mL geneticin (G418) and maintained in 37° C. incubators at 5% CO2. […]
The incubation was terminated by adding the detection reagent (19 parts of 1% CHAPS, 5 parts Emerald-II and 1 part Galacton-Star), equivalent to 50% of the assay volume to each wells. Plates were incubated for 1 hour in the dark at room temperature, followed by chemiluminescence detection using a microplate reader.
Data were analysed by generating nonlinear regression curves. […]

Experiment [2] addresses T1, human CB1 receptor. Put plainly: CB1 receptor AequoScreen functional assay (agonist mode). The class given is cell-based. Also noted: Perkin Elmer (host cells ES-000-A24); host or cells: CHO-K1 aeq/G16 (transient, FuGene). From the text: Aequorin is a photoprotein originating from the jellyfish Aequorea Victoria. The apo-enzyme (apoaequorin) requires a hydrophobic prosthetic group, coelenterazine, to be converted to aequorin, the active form of the enzyme. […] Upon calcium binding, aequorin oxidizes coelenterazine into coelenteramide with the production of CO2 and emission of light. The consumption of aequorin is proportional to the calcium concentration. Therefore, measurement of the light emitted upon oxidation of coelenterazine is a reliable tool for measurement of intracellular calcium flux. […]
FuGene from Promega (Catalog number selected: E2691) was used to transiently transfect CHO-K1 aeq/G16 cells with an expression vector containing the open reading frame (ORF) expression clone for CNR1 (NM_016083.4; bacterial stock; Gencopeia Inc.) at a ratio of 15 ng of plasmid DNA to 480,000 cells. […]
After incubation, the mixture was diluted 3-fold in assay media and kept under constant gentle agitation at room temperature. […] Cells were injected automatically over the serial diluted test compounds and CP55,940 using a liquid dispenser, and the luminescence was recorded over 10-30 seconds in a microplate reader.
Sigmoidal dose-response curves were generated using average Luminescent Counts Per Second (LCPS) which were recorded immediately after cells were mixed with compounds in agonist mode.

The next experiment addresses T2, human CB2 receptor (Homo sapiens, UniProt P34972).
T2 construct: membranes prepared in house
Put plainly: CB2 radioligand competitive binding assay ([3H]CP 55,940 displacement). As for the experimental part:
Compounds of the present disclosure were tested for CB1 receptor binding affinity and for CB2 receptor binding affinity. As used herein, “binding affinity” is represented by the IC50 value, which was experimentally determined as described herein. The lower the IC50 value the higher the binding affinity. A compound of the present disclosure may be said to have “binding selectivity” If it has a higher binding affinity for one receptor compared to the other.
The membranes were prepared from CHO-K1 (Chinese hamster ovary) cells stably transfected with the human CB2 receptor (Cat. #ES-111-C; Perkin Elmer, Boston, MA). The cells were grown adherently and maintained in Ham's F12 medium containing 10% fetal bovine serum (FBS), penicillin, streptomycin and geneticin (G418) at 37° C. in a humid atmosphere of 5% CO2 following the manufacturer's Instructions.
For membrane preparation the cells were washed with PBS and scraped off the plates in cold homogenization buffer (25 mM HEPES (pH 7.4), 2 mM EDTA) containing protease inhibitor cocktail (Sigma Cat. #P8340). The cell suspension was homogenized with a Pro-PK-01200D Polytron Homogenizer (Pro Scientific) and then centrifuged for 30 min at 120,000×g. The supernatant was discarded and the pellet was re-suspended in the homogenization buffer and stored at −80° C. until the time of use.
In this experiment, 3H radiolabeled CP 55,940, i.e. [3H]CP 55,940 (Perkin Elmer, Boston, MA), was used as a radioligand for the CB2 receptor to determine the binding affinity of compounds for the CB2 receptor (Scheme 8; above).
The competition binding experiments (single dose and dose-response) were performed by incubating 0.6 nM of [3H]CP55,940 (specific activity 101 Ci/mmol, Perkin Elmer) and different concentrations of compounds disclosed herein with membranes prepared as above from CHO-K1 cells expressing human CB2 receptor (1 μg of protein/well), 50 mM Tris-HCl (pH 7.4), 5 mM MgCl2, 1 mM CaCl2, and 2 mg/mL BSA.
For the single dose experiments, the compound stocks (usually 10 mM in DMSO) were diluted to working stocks in the binding buffer to give the final compound concentrations of 10 μM and 1 μM. For the dose-response experiments the test compounds were sequentially diluted to provide the desired concentration range for the IC50 determination. In each case the compounds were pre-incubated with the membrane for 20 min, before adding the radioligand.
After incubation with the radioligand for 60 min at 37° C., the incubation was terminated by rapid filtration of assay mixture through MultiScreen®HTS^+ 96-well filter plates (Millipore, Cat. #MSFCNXB), pre-soaked for 60 min with 50 mM Tris-HCl (pH 7.4) containing 0.33% polyethylenimine (PEI). The nonspecific binding (NSB) was determined in the presence of 10 μM unlabeled CP55,940. After drying the filter plate at 50° C. for at least 60 min, the filter-bound radioactivity was determined by scintillation spectrometry using the 1450 MicroBeta Plate Counter (Perkin Elmer, Boston, MA). From the dose-response experiments, the IC50 values were determined (see Table 1, CB2 IC50).

Experiment [3] concerns the target T1, human CB1 receptor. Kind of experiment: biochemical. The class given is binding. Set-up: membranes prepared in house.

Structures are written as SMILES.

T1 sequence (P21554 whole entry, the tested form may be a part): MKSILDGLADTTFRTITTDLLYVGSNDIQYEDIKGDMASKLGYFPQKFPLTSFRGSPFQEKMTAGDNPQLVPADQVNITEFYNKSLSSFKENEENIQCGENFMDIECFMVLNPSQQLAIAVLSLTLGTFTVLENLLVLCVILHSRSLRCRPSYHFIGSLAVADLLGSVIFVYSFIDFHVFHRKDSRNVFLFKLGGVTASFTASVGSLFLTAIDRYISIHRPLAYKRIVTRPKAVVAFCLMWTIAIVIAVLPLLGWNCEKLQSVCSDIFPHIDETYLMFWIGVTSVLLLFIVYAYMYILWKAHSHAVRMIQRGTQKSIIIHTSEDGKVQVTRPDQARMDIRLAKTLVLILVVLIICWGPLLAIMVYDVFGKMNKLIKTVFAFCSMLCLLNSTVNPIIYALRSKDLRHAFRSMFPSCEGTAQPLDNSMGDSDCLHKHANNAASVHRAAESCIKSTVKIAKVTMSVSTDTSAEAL
T2 sequence (P34972 whole entry): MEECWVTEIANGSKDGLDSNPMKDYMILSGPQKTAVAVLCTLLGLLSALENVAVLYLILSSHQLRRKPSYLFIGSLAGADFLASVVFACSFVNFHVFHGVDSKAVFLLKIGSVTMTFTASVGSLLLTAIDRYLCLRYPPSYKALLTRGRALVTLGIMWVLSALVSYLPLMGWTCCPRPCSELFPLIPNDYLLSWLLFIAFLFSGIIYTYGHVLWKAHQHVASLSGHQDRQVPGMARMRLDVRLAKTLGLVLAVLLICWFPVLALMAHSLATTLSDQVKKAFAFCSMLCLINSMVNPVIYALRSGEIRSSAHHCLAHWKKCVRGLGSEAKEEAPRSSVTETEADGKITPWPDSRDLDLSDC

Broadly, the EC50 is the concentration giving half of the maximal effect. A lower EC50 goes with higher potency in that assay. One may read the IC50 as the concentration that gives 50% inhibition. A lower IC50 goes with greater potency. For `CCCCCc1cc(O)c(C2C=C(C)CCC2)c(O)c1S(=O)(=O)N(CC)CC` (stereo not shown) [Compound 62c, N,N-diethyl-2,6-dihydroxy-5′-methyl-4-pentyl-1′,2′,3′,4′-tetrahydro-[1,1′-biphenyl]-3-sulfonamide], the EC50 on human CB1 receptor [1] is roughly 499 nM; on human CB1 receptor [2], roughly 502 nM. The “relative efficacy in comparison to CP55,940” value was “about 56%” at human CB1 receptor [1] (agonist mode, PathHunter CHO-K1 CNR1 β-Arrestin cells) and “about 117%” at human CB1 receptor [2] (AequoScreen, agonist mode, CHO-K1 aeq/G16 cells transfected with CNR1). In addition, the IC50 on human CB2 receptor ([3H]CP 55,940 displacement, CHO-K1 membranes expressing human CB2 receptor) was less than 100 nM; against human CB1 receptor [3], 100 to 990 nM. Moreover, the “Selectivity CB2” value at human CB2 receptor (fold difference in binding between CB1 and CB2, shown in the column of the receptor with higher affinity, 1.00 in both = about same affinity) was 31.82 fold.
